This passage reports IC50 results from patent US12240862B2, “Inhibitors of peptidylarginine deiminases” (Gilead Sciences, Inc., priority 2020, dated 2025).

The target of this test is T1, human PAD4 (Homo sapiens, UniProt Q9UM07).
T1 construct: human PAD4 (NM_012387), A2P663, was PCR amplified; His-SUMO (N, cleaved yes); made in house; host or cells: E. coli BL21(DE3)
Kind of test: In vitro PAD4 BAEE biochemical assay. Conditions: human PAD4, BAEE substrate; 5 nM PAD4, 2 mM calcium chloride, 3 mM BAEE; geometric mean of multiple experiments. The procedure, abridged:
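Ammonia generated from BAEE serves as the readout, measured by o-phthalaldehyde after EDTA termination. Final conditions: 5 nM human PAD4 (SUMO tag cleaved), 2 mM CaCl2, 3 mM BAEE, pH 7.6 MOPS buffer, 25 °C for 2 h following a 30-min compound preincubation.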

T1 sequence (Q9UM07 2-663): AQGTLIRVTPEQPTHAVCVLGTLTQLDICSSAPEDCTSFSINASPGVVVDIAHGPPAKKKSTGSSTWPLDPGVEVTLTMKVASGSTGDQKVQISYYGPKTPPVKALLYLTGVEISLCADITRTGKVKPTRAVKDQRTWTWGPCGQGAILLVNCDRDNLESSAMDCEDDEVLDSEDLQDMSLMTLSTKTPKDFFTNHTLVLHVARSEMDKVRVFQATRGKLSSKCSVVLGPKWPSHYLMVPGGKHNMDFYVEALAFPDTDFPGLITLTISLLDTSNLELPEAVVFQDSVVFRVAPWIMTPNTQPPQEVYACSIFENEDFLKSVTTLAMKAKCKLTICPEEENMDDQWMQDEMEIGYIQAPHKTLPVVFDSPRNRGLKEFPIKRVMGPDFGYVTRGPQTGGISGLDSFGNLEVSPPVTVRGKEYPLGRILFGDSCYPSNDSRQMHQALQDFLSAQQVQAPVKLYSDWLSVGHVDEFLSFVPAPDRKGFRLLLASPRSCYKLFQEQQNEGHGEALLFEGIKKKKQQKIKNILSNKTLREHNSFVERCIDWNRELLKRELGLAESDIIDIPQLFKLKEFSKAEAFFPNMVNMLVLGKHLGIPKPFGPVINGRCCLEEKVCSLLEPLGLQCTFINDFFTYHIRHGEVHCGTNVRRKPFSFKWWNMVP

The IC50 is the concentration at which inhibition is half-maximal. As for `COc1cc(C(=O)N2[C@H]3CC[C@@H]2[C@H](N)C3)cc2nc(-c3cc4ccc([C@@H](C)NC(=O)C5(O)CC5)nc4n3CC3CC3)c(C)n12` [Example 97, ~{N}-[(1~{R})-1-[2-[7-[(1~{R},2~{R},4~{S})-2-amino-7-azabicyclo[2.2.1]heptane-7-carbonyl]-5-methoxy-3-methylimidazo [1,2-a]pyridin-2-yl]-1-(cyclopropylmethyl)pyrrolo [2,3-b]pyridin-6-yl]ethyl]-1-hydroxycyclopropane-1-carboxamide], the IC50 is 30.6 nM.

As for `COc1cc(C(=O)N2[C@H]3CC[C@@H]2[C@H](N)C3)cc2nc(-c3cc4ccc([C@@H](C)NC(=O)C5CCOCC5)nc4n3CC3CC3)c(C3CC3)n12` [Example 98], the half-maximal inhibitory concentration (IC50) is 33.2 nM.

For `COc1cc(C(=O)N2C[C@H]3CC[C@@H]2[C@@H]3N)cc2nc(-c3cc4ccc([C@@H](C)NC(=O)[C@H]5CC5(F)F)nc4n3CC3CC3)c(C)n12` [Example 100, (R)-N-((R)-1-(2-(7-((1R,4R,7R)-7-amino-2-azabicyclo[2.2.1]heptane-2-carbonyl)-5-methoxy-3-methylimidazo[1,2-a]pyridin-2-yl)-1-(cyclopropylmethyl)-1H-pyrrolo[2,3-b]pyridin-6-yl)ethyl)-2,2-difluorocyclopropane-1-carboxamide], the IC50 amounted to 76.7 nM.

For `COc1cc(C(=O)N2[C@H]3CC[C@@H]2[C@H](N)C3)cc2nc(-c3cc4ccc([C@@H](C)NC(=O)C5CCC5)nc4n3CC3CC3)c(C)n12` [Example 101], the IC50 was determined as 22.5 nM.

Regarding `COc1cc(C(=O)N2[C@H]3CC[C@@H]2[C@H](N)C3)cc2nc(-c3cc4ccc([C@@H](C)NC(=O)C5(C)CC5(F)F)nc4n3CC3CC3)c(C)n12` (some centres unmarked) [Example 102, ~{N}-[(1~{R})-1-[2-[7-[(1~{R},2~{R},4~{S})-2-amino-7-azabicyclo[2.2.1]heptane-7-carbonyl]-5-methoxy-3-methylimidazo [1,2-a]pyridin-2-yl]-1-(cyclopropylmethyl)pyrrolo [2,3-b]pyridin-6-yl]ethyl]-2,2-difluoro-1-methylcyclopropane-1-carboxamide], the IC50 is 46.6 nM.

Regarding `COc1cc(C(=O)N2[C@H]3CC[C@@H]2[C@H](N)C3)cc2nc(-c3cc4ccc([C@@H](C)NC(=O)C5C(C)(C)C5(F)F)nc4n3CC3CC3)c(C)n12` (some centres unmarked) [Example 103, ~{N}-[(1~{R})-1-[2-[7-[(1~{R},2~{R},4~{S})-2-amino-7-azabicyclo[2.2.1]heptane-7-carbonyl]-5-methoxy-3-methylimidazo [1,2-a]pyridin-2-yl]-1-(cyclopropylmethyl)pyrrolo [2,3-b]pyridin-6-yl]ethyl]-2,2-difluoro-3,3-dimethylcyclopropane-1-carboxamide], the IC50 stood at 66.6 nM.

Regarding `COc1cc(C(=O)N2[C@H]3CC[C@@H]2[C@H](N)C3)cc2nc(-c3cc4ccc([C@@H](C)NC(=O)c5ccon5)nc4n3CC3CC3)c(C)n12` [Example 104, ~{N}-[(1~{R})-1-[2-[7-[(1~{R},2~{R},4~{S})-2-amino-7-azabicyclo[2.2.1]heptane-7-carbonyl]-5-methoxy-3-methylimidazo [1,2-a]pyridin-2-yl]-1-(cyclopropylmethyl)pyrrolo [2,3-b]pyridin-6-yl]ethyl]-1,2-oxazole-3-carboxamide], the IC50 turned out to be 88.3 nM.

With `COc1cc(C(=O)N2[C@H]3CC[C@@H]2[C@H](N)C3)cc2nc(-c3cc4ccc([C@@H](C)NC(=O)c5cocn5)nc4n3CC3CC3)c(C)n12` [Example 105, ~{N}-[(1~{R})-1-[2-[7-[(1~{R},2~{R},4~{S})-2-amino-7-azabicyclo[2.2.1]heptane-7-carbonyl]-5-methoxy-3-methylimidazo [1,2-a]pyridin-2-yl]-1-(cyclopropylmethyl)pyrrolo [2,3-b]pyridin-6-yl]ethyl]-1,3-oxazole-4-carboxamide], the IC50 came out at 56 nM.

In the case of `COc1cc(C(=O)N2[C@H]3CC[C@@H]2[C@H](N)C3)cc2nc(-c3cc4ccc([C@@H](C)NC(=O)c5cnn(C6CC6)c5)nc4n3CC3CC3)c(C)n12` [Example 106, ~{N}-[(1~{R})-1-[2-[7-[(1~{R},2~{R},4~{S})-2-amino-7-azabicyclo [2.2.1]heptane-7-carbonyl]-5-methoxy-3-methylimidazo [1,2-a]pyridin-2-yl]-1-(cyclopropylmethyl)pyrrolo [2,3-b]pyridin-6-yl]ethyl]-1-cyclopropylpyrazole-4-carboxamide], the IC50 was 40.6 nM.

Consider `COc1cc(C(=O)N2[C@H]3CC[C@@H]2[C@H](N)C3)cc2nc(-c3cc4ccc([C@@H](C)NC(=O)c5cnn(C(F)F)c5)nc4n3CC3CC3)c(C)n12` [Example 107], for which the IC50 came out at 44.3 nM.

Take `COc1cc(C(=O)N2[C@H]3CC[C@@H]2[C@H](N)C3)cc2nc(-c3cc4ccc([C@@H](C)NC(=O)c5ccn(C)n5)nc4n3CC3CC3)c(C)n12` [Example 108, ~{N}-[(1~{R})-1-[2-[7-[(1~{R},2~{R},4~{S})-2-amino-7-azabicyclo[2.2.1]heptane-7-carbonyl]-5-methoxy-3-methylimidazo [1,2-a]pyridin-2-yl]-1-(cyclopropylmethyl)pyrrolo [2,3-b]pyridin-6-yl]ethyl]-1-methylpyrazole-3-carboxamide]: the IC50 came to 52.3 nM.

For the compound `COc1cc(C(=O)N2[C@H]3CC[C@@H]2[C@H](N)C3)cc2nc(-c3cc4ccc([C@@H](C)NC(=O)C5(C)COC5)nc4n3CC3CC3)c(C3CC3)n12` [Example 109, ~{N}-[(1~{R})-1-[2-[7-[(1~{R},2~{R},4~{S})-2-amino-7-azabicyclo[2.2.1]heptane-7-carbonyl]-3-cyclopropyl-5-methoxyimidazo [1,2-a]pyridin-2-yl]-1-(cyclopropylmethyl)pyrrolo [2,3-b]pyridin-6-yl]ethyl]-3-methyloxetane-3-carboxamide], the IC50 amounted to 31.7 nM.

For `CCCO[C@@H]1CCN(C(=O)c2cc(OC)n3c(C)c(-c4cc5ccc([C@@H](C)NC(=O)c6ccccc6)nc5n4CC4CC4)nc3c2)C[C@@H]1N` [Example 111, ~{N}-[(1~{R})-1-[2-[7-[(3~{S},4~{R})-3-amino-4-propoxypiperidine-1-carbonyl]-5-methoxy-3-methylimidazo[1,2-a]pyridin-2-yl]-1-(cyclopropylmethyl)pyrrolo [2,3-b]pyridin-6-yl]ethyl] benzamide], the IC50 was 305 nM.

For the compound `CCO[C@@H]1CCN(C(=O)c2cc(OC)n3c(C)c(-c4cc5ccc([C@@H](C)NC(=O)c6ccccc6)nc5n4CC4CC4)nc3c2)C[C@@H]1N` [Example 112, ~{N}-[(1~{R})-1-[2-[7-[(3~{S},4~{R})-3-amino-4-ethoxypiperidine-1-carbonyl]-5-methoxy-3-methylimidazo[1,2-a]pyridin-2-yl]-1-(cyclopropylmethyl)pyrrolo [2,3-b]pyridin-6-yl]ethyl]benzamide], the IC50 came to 307 nM.

Turning to `COc1cc(C(=O)N2CC[C@@H](OC)[C@@H](N)C2)cc2nc(-c3cc4ccc([C@@H](C)NC(=O)c5ccccc5)nc4n3CC3CC3)c(C)n12` [Example 114, ~{N}-[(1~{R})-1-[2-[7-[(3~{S},4~{R})-3-amino-4-methoxypiperidine-1-carbonyl]-5-methoxy-3-methylimidazo [1,2-a]pyridin-2-yl]-1-(cyclopropylmethyl)pyrrolo [2,3-b]pyridin-6-yl]ethyl]benzamide], the IC50 was 220 nM.

Consider `COc1cc(C(=O)N2CC[C@@H](O)[C@@H](N)C2)cc2nc(-c3cc4ccc([C@@H](C)NC(=O)c5ccccc5)nc4n3CC3CC3)c(C)n12` [Example 115], for which the IC50 came to 177 nM.

For `COc1cc(C(=O)N2[C@H]3CC[C@@H]2[C@H](N)C3)cc2nc(-c3cc4ccc([C@@H](C)NC(=O)c5cnn(C)c5)nc4n3CC3CC3)c(C)n12` [Example 116, ~{N}-[(1~{R})-1-[2-[7-[(1~{R},2~{R},4~{S})-2-amino-7-azabicyclo[2.2.1]heptane-7-carbonyl]-5-methoxy-3-methylimidazo [1,2-a]pyridin-2-yl]-1-(cyclopropylmethyl)pyrrolo [2,3-b]pyridin-6-yl]ethyl]-1-methylpyrazole-4-carboxamide], the IC50 was 34.8 nM.

For the compound `COc1cc(C(=O)N2[C@H]3CC[C@@H]2[C@H](N)C3)cc2nc(-c3cc4ccc([C@@H](C)NC(=O)c5cnco5)nc4n3CC3CC3)c(C)n12` [Example 117, ~{N}-[(1~{R})-1-[2-[7-[(1~{R},2~{R},4~{S})-2-amino-7-azabicyclo[2.2.1]heptane-7-carbonyl]-5-methoxy-3-methylimidazo [1,2-a]pyridin-2-yl]-1-(cyclopropylmethyl)pyrrolo [2,3-b]pyridin-6-yl]ethyl]-1,3-oxazole-5-carboxamide], the IC50 amounted to 33.4 nM.

Take `COc1cc(C(=O)N2[C@H]3CC[C@@H]2[C@H](N)C3)cc2nc(-c3cc4ccc([C@@H](C)NC(=O)c5ncccn5)nc4n3CC3CC3)c(C)n12` [Example 118, ~{N}-[(1~{R})-1-[2-[7-[(1~{R},2~{R},4~{S})-2-amino-7-azabicyclo[2.2.1]heptane-7-carbonyl]-5-methoxy-3-methylimidazo [1,2-a]pyridin-2-yl]-1-(cyclopropylmethyl)pyrrolo [2,3-b]pyridin-6-yl]ethyl]pyrimidine-2-carboxamide]: the IC50 amounted to 63.7 nM.

For the compound `COc1cc(C(=O)N2[C@H]3CC[C@@H]2[C@H](N)C3)cc2nc(-c3cc4ccc([C@@H](C)NC(=O)c5ccncc5)nc4n3CC3CC3)c(C)n12` [Example 119, ~{N}-[(1~{R})-1-[2-[7-[(1~{R},2~{R},4~{S})-2-amino-7-azabicyclo[2.2.1]heptane-7-carbonyl]-5-methoxy-3-methylimidazo [1,2-a]pyridin-2-yl]-1-(cyclopropylmethyl)pyrrolo [2,3-b]pyridin-6-yl]ethyl] pyridine-4-carboxamide], the concentration for half-maximal inhibition (IC50) was determined as 34.5 nM.
